Data published in US20100152249A1, “COMPOSITONS AND METHOD FOR TREATMENT OF MOOD AND COGNITIVE IMPAIRMENTS” (BOARD OF TRUSTEES OF THE LELAND STANFORD JUNIOR UNIVERSITY, priority 2008, published 2010).

System: patients with depressive disorder
Experiment: Open-label rosiglitazone added to treatment as usual for 12 weeks in patients with depressive disorder and surrogate IR blood markers
Format: in vivo, human
Method: Open-label PPAR agonist, rosiglitazone, titrated to a dose of 8 mg/day, was administered for 12 weeks to patients with depressive disorder receiving treatment as usual (TAU). Subjects were evaluated and surrogate IR blood markers were chosen based on fasting plasma glucose >100 mg/dL or triglyceride (TG) to high density lipoprotein (HDL) ratio of about 3.0 or greater.
Psychiatric Response to Treatment. […] Cohen's d for pre- to post-treatment HDRS-21 was 1.17, with an effect size of r=0.504. For CGI-S scores, Cohen's d and effect size r for CGI-S were 1.27 and 0.54, respectively. […] Even considering the very small sample size, the trajectory of decline in HDRS and CGI was linear.

[1] = 8 mg/day, 12 weeks, 8 completers

For `CN(CCOc1ccc(CC2SC(=O)NC2=O)cc1)c1ccccn1` (stereo not drawn) [rosiglitazone, 5-[4-[2-(N-methyl-N-(2-pyridyl)amino)ethoxy]benzyl]thiazolidine-2,4-dione], the CGI-S post-treatment mean (8 mg/day, 12 weeks, add-on to TAU, 8 completers, baseline mean 4.0, p=0.043) was 2.9, the HDRS-21 post-treatment mean (8 mg/day, 12 weeks, add-on to TAU, 8 completers, baseline mean 19.9, repeated measures ANOVA p=0.019) was 12.1 and the “Cohen's d for CGI-S” value [1] was 1.27. The “Cohen's d for pre- to post-treatment HDRS-21” value [1] was 1.17, the “effect size r for CGI-S” value [1] was 0.54 and the “effect size r for pre- to post-treatment HDRS-21” value [1] was 0.504. The “patients showing ≧50% HDRS-21 score reduction” value [1] was 4 of the 8, the “mean reduction in HDRS-21 scores” value (8 mg/day, 12 weeks, 8 completers, versus baseline) was 39.3% and the “depression severity by Hamilton Depression Rating Scale and clinical assessment (CGI) scores” value (8 patients who completed the 12 week study, moderate effect sizes) was “significant declines”.
